# Reference: patent publication US5441983A, “Treatment of infection by enveloped virus with calix(N)arene compounds” (Genelabs Incorporated, priority 1992, dated 1995)
# Experiments:
# [1] = tested on: HIV-HXB; assay: Inhibition of syncytia formation, HIV-HXB (HTLV-IIIB); settings: Human immunodeficiency virus 1, 18 h, read-out: HIV-HXB ED100, complete inhibition of syncytia formation
# Description: (§13) Briefly, cells chronically infected with HTLV-IIIB or RF-II HIV strains were incubated in the presence of serial dilutions of the selected KY compound, then further cocultured with indicator cells. The extent of syncytia formation was scored under phase microscopy.
# (§14) Representative calix(n)arene compounds from Table 2 were tested for inhibition of cytopathic effects in cells infected with one of two HTLV-III strains, HTLV-IIIB and RF-II strains, as described in Example 12, and in the subsection above.
# (§15) Human CD4^+ indicator cells (VB) and chronically infected H9 cells were maintained in RPMI-1640 medium supplemented with 5% fetal calf serum, 100 Units of penicillin per ml and 100 μg of streptomycin per ml at 37° C. in a humidified incubator containing 7% CO2.
# (§16) For the fusion assay, serial dilutions between 1:2 and 1:2^8 of a selected KY compound, 1 mg/ml in PBS were made in a 96 well round bottom plate. The diluted KY compound was transferred to a 96 well flat-bottom plate. To each well was added 25 μg chronically infected H9 cells (at 2×10^6, cells/ml), or cells chronically infected with RF-II strain HIV, followed by incubation at 37° C. for 45 minutes. To each well was then added 25 μl VB cells (about 5×10^4 cells), and the cells and virus isolates were cocultured for 18 hours in a humid 5% CO2 atmosphere.
# [2] = tested on: HSV-1 or HSV-2; assay: Inhibition of HSV cytopathic effect (CPE) in Vero cells; settings: 10-20 μg/ml
# Description: In the method reported in Example 5, Vero cells were infected with HSV-1 or HSV-2 and allowed to grow in culture until cytopathic effects were clearly visible. In the absence of infection, the cells form an even monolayer of fibro-blastlike cells. With HSV infection, a cytopathic effect characterized by round cells in suspension is clearly evident after 24 hours, followed by clumping and lysis of infected cells after 24-72 hours.
# In the drug inhibition study reported in Example 5, cells were exposed to HSV-1 or HSV-2 virus and, at the same time, to a selected aryl macrocyclic compound, at a final drug concentration of 10 μg/ml. Twenty-four hours later the cells were examined for cytopathic effect.
# Vero cells were maintained in RPMI-1640 medium supplemented with 5% fetal calf serum, 100 Units of penicillin per ml and 100 μg of streptomycin per ml at 37° C. in a humidified incubator containing 7% CO2. The HSV strains HSV-1 (Kos-1) and HSV-2 (333) were used.
# 1×10^5 Vero cells were plated in each well of a 96 well microtitre plate in 0.2 ml RPMI-1640 medium containing 5% FCS and 0.1% methyl cellulose (15 cps). After overnight incubation, and cell doubling, the medium was aspirated and replaced with 100 .1 of the same medium containing 2% FCS, and 50.1 control or drug solution to a final drug concentration of 10 μg/ml and 50 μl virus, containing about 3 PFU/cell, i.e., 6 x 10^s PFU/well, of HSV-1 or HSV-2.
# The cells were cultured for 24 hours at 37° C. at which time cytopathic effects are clearly visible. In the absence of viral infection, the cells form an even monolayer of fibroblast cells. With viral infection, the cells form a suspension of round cells, followed by cell clumping, whose appearance is easily distinguishable from normal fibroblast cells. If no detectable cytopathic effect was produced, the test was repeated with 10 μg/ml. A parallel set of cells without virus inoculation were done as a control for cytotoxicity to Vero cells.
# [3] = tested on: HSV-2; assay: Plaque reduction assay, HSV-2, Vero cells; assay type: cell-based, HSV-2 (333); settings: Human alphaherpesvirus 2, Vero
# Description: (§1) used in Table 3 were further tested for activity against HSV infection in
# (§2) a plaque reduction assay, as detailed in Example 6. Here Vero cells, after
# (§3) overnight incubation, were exposed to serial dilutions of KY compound,
# (§4) from 0.625-10 μg/ml, and HSV-1 or HSV-2 virus for two hours. After
# (§5) washing to remove drug and extracellular virus, the cells were further
# (§6) incubated for 2 days, then stained and counted for plaque formation.
# (§7) Percent inhibition was determined by dividing plaques produced by total
# (§8) number of plaques in infected, untreated controls. From the concentration
# (§9) effect curve of plaque inhibition (expressed as percent of control), the
# (§10) concentration of compound required to produce 50% plaque reduction,
# (§11) IC50, was determined. The IC50 values for infection by HSV-1 and
# (§12) HSV-2 infection is given in the right-hand columns in Table 3. With
# [4] = tested on: RSV; assay: Inhibition of RSV cytopathic effect in HEp2 cells; assay type: cell-based; settings: human respiratory syncytial virus, HEp-2; HEp2 cells, cytopathic effect; read-out: ED50 RSV
# [5] = tested on: HIV-RF-II; assay: Inhibition of syncytia formation, HIV-RF-II; settings: for EC100: Human immunodeficiency virus 1, 18 h, read-out: HIV-RF-II ED100, complete inhibition of syncytia formation
# Description: as §13, §14, §15, §16
# [6] = tested on: panel of human cell lines; assay: Cytotoxicity in proliferating human cell lines; assay type: cell-based; settings: Homo sapiens, 72 h, read-out: IC50 drug concentration (50% cell death)
# Description: In addition, a large number of representative aryl macrocyclic compounds (including those shown in Tables 1 and 2) were examined for toxicity in cell culture, using a panel of human cell lines, as detailed in Example 4. Briefly, the selected KY- or Y- compound was added to cell cultures at a final concentration of 5, 10, 25, 50, or 100 μg/ml. Three days later the cells were washed to remove drug, and stained with a vital stain, to determine the percentage of dead cells in each culture. The IC50 drug concentration, i.e., value concentration of drug which produced 50% cell death, was 50 μg/ml for KY-143, KY-151, and KY-163, and 100 μg/ml or greater for all of the other KY compounds tested. For KY-1, which has a molecular weight of 1404 daltons, a drug concentration of 100 μg/ml is equivalent to about […].
# A panel of human cell lines was used to check the toxicity of the drugs, including: KB (nasopharyngeal carcinoma), HeLaS3 (cervical epithelial carcinoma), PLC (hepatocarcinoma), HepG2 (human hepatocarcinoma) HepG2T14 (hepatocarcinoma transfected with HBV), WI38 (normal human lung fibroblast), BT549 (breast cancer), SW480 ([…]), and A549 (lung cancer).
# Three days later, the medium was removed and the cells were stained with Commassie Blue in 40% methanol and 7% acetic acid. The results are discussed in Section II above.
# [7] = tested on: Influenza A (Taiwan); assay: Inhibition of influenza A cytopathic effect (clumping) in MDCK cells; assay type: cell-based, Influenza A virus (A/Taiwan strain); settings: Influenza A virus, 24 h, 50% reduction in percent clumped cells, read-out: ED50 Influenza A (Taiwan)
# Description: With virus infection, a cytopathic effect characterized by cell clumping is observed. For each compound tested, drug concentrations of 0.1, 1, 10, 25, and 100 μg/ml were added to cultured cells at the time of virus infection, as detailed in Examples 9 and 11. […] The inhibition of clumping was plotted as a function of drug concentration, to determine the dose effective to produce a 50% reduction in the percent clumped cells, measured with respect to control (no drug treatment).
# Assays to assess the antiviral activity of KY- and Y-compounds in tissue culture were performed in 96-well flat-bottom tissue culture plates (Falcon 307), using conditions similar to those used in the cytotoxicity assays described above. In these assays, compound was tested in quadruplicate by serially diluting the compound in 2% FCS-MEM using serial two-fold dilutions (0.05 ml/well). A 0.05 ml volume of the appropriate virus containing approximately 100 median tissue culture infectious doses (TCID50) was then added to all wells except those set aside as antiviral and tissue control wells. Next, approximately 3×10^3 HEp2 cells (0.1 ml) were added to each well. Control wells containing antiviral and no virus (antiviral control), containing virus but no antiviral (virus control), or containing medium without virus or antiviral (tissue control), were included in each test. The challenge virus was then back titrated. All assay plates were incubated at 35° C. for 5 to 7 days in a 5% CO2 incubator.
# The anti-influenza A activity of KY compounds was evaluated as described in Example 9, except that MDCK cells (kidney cell line) was used for infection in vitro by influenza virus (strain A/Taiwan).
# [8] = tested on: HSV-1; assay: Plaque reduction assay, HSV-1, Vero cells; assay type: cell-based, HSV-1 (Kos-1); settings: Human alphaherpesvirus 1, Vero, plaque reduction, Vero cells
# Description: as §1, §2, §3, §4, §5, §6, §7, §8, §9, §10, §11, §12
# [9] = tested on: HSV-2 333; assay: Inhibition of viral yield, wild type HSV-2 333; settings: Human alphaherpesvirus 2, HeLa, read-out: ID90
# Description: (§17) These compounds tested were the nucleoside analogs acyclovir (ACV), ganciclovir (DHPG), phosphonoformate (PFA), and phosphomethoxyethyladenine (PMEA). Inhibition of viral yield was determined, as above, by infecting Hela cells in the presence of wild type or drug-resistant strains of HSV-1 or HSV-2, and serial dilutions of a selected anti-viral compound, and infecting Vero cells with serial dilutions of the Hela cell lysate, as above.
# (§18) The KOS (HSV-1) and 333 (HSV-2) are wild type viruses; the KOS(PMEA)' and KOS(PFA)' are drug-resistant HSV-1 strains having a DNA polymerase mutation. The 333(DHPG) strain is a drug-resistantHSV-2 strain having a thymidine kinase mutation.
# (§19) The following strains of HSV-1 and HSV-2 virus were used: KOS, a wild type HSV-1 virus; KOS (PMEA) and KOS (PFA), both drug-resistant HSV-1 viruses having a DNA polymerase mutation; 333, a wild type HSV-2 HSV-2 virus, and 333 (DHPG), a drug-resistant HSV-2 virus having a thymidine kinase mutation.
# (§20) After growth at 37° C. for 24 hours in 2 ml of RPMI-1640 containing 2% FCS and penicillin and streptomycin (P/S), the cells were frozen at -70° C. until the time for titration. The cells were freeze/thawed 3 times to release virus from the cells, serially diluted 10 fold, and the serial dilutions were added to Vero cells in culture. After 2 hours incubation at 37° C. the virus was removed and 0.5 ml methycellulose (4K cps) in RPMI-1640 and 2% FCS+P/S was added. Two days later, the medium was removed. The cells were stained in 0.8% crystal violet in 50% ethanol. The plaques formed were counted and the titer was calculated from the fold of dilutions. From the drug dose response, the concentration of each drug required to effect a 90% inhibition of virus yield, the IC90 concentration was determined.
# [10] = tested on: HSV-1 KOS; assay: Inhibition of viral yield, wild type HSV-1 KOS; settings: Human alphaherpesvirus 1, HeLa, read-out: ID90
# Description: as §17, §18, §19, §20
# [11] = tested on: HSV-1 KOS (PFA)'; assay: Inhibition of viral yield, drug-resistant HSV-1 KOS(PFA)'; settings: Human alphaherpesvirus 1, HeLa, read-out: ID90
# Description: as §17, §18, §19, §20
# [12] = tested on: HSV-1 KOS(PMEA)'; assay: Inhibition of viral yield, drug-resistant HSV-1 KOS(PMEA)'; settings: Human alphaherpesvirus 1, HeLa, read-out: ID90
# Description: as §17, §18, §19, §20
# [13] = tested on: HSV-2 333 (DHPG)'; assay: Inhibition of viral yield, drug-resistant HSV-2 333(DHPG)'; settings: Human alphaherpesvirus 2, HeLa, read-out: ID90
SMILES,EC100 [1] [µg/mL],"protection from CPE, in words [2]",IC50 [3] [µg/mL],IC50 [8] [µg/mL],EC100 [5] [µg/mL],further results
CCNS(=O)(=O)c1cc2cc(S(=O)(=O)NCC)c3c(O)c2c(O)c1Cc1c(S(=O)(=O)NCC)cc2cc(S(=O)(=O)NCC)c(c(O)c2c1O)Cc1c(S(=O)(=O)NCC)cc2cc(S(=O)(=O)NCC)c(c(O)c2c1O)Cc1c(S(=O)(=O)NCC)cc2cc(S(=O)(=O)NCC)c(c(O)c2c1O)C3 [KY-148],250,low activity,–,–,–,–
COc1c2c(S(=O)(=O)O)cc3cc(S(=O)(=O)O)c(c(OC)c13)Cc1c(S(=O)(=O)O)cc3cc(S(=O)(=O)O)c(c(OC)c3c1OC)Cc1c(S(=O)(=O)O)cc3cc(S(=O)(=O)O)c(c(OC)c3c1OC)Cc1c(S(=O)(=O)O)cc3cc(S(=O)(=O)O)c(c(OC)c3c1OC)C2 [KY-151],32,–,1.8,1.25,–,EC50 [4]: 1.5 µg/mL; HIV-RF-II ED100 ([5]; complete inhibition of syncytia formation): 125; IC50 [6]: 50 µg/mL; EC50 [7]: > 94 µg/mL
CS(=O)(=O)c1cc2cc(S(C)(=O)=O)c3c(O)c2c(O)c1Cc1c(S(C)(=O)=O)cc2cc(S(C)(=O)=O)c(c(O)c2c1O)Cc1c(S(C)(=O)=O)cc2cc(S(C)(=O)=O)c(c(O)c2c1O)Cc1c(S(C)(=O)=O)cc2cc(S(C)(=O)=O)c(c(O)c2c1O)C3 [KY-158],500,low activity,> 10,> 10,7500,–
COS(=O)(=O)c1cc2cc(S(=O)(=O)OC)c3c(O)c2c(O)c1Cc1c(S(=O)(=O)OC)cc2cc(S(=O)(=O)OC)c(c(O)c2c1O)Cc1c(S(=O)(=O)OC)cc2cc(S(=O)(=O)OC)c(c(O)c2c1O)Cc1c(S(=O)(=O)OC)cc2cc(S(=O)(=O)OC)c(c(O)c2c1O)C3 [KY-175],63,low activity,> 10,> 10,250,–
O=S(=O)(O)c1c2c(O)c3c(O)c(c(S(=O)(=O)O)c(Br)c3c1Br)Cc1c(S(=O)(=O)O)c(Br)c3c(Br)c(S(=O)(=O)O)c(c(O)c3c1O)Cc1c(S(=O)(=O)O)c(Br)c3c(Br)c(S(=O)(=O)O)c(c(O)c3c1O)Cc1c(S(=O)(=O)O)c(Br)c3c(Br)c(S(=O)(=O)O)c(c(O)c3c1O)C2 [KY-194],63,–,1,1,125,EC50 [4]: 0.5 µg/mL; EC50 [7]: 7.9 µg/mL
COc1c2c(S(=O)(=O)O)cc3cc(S(=O)(=O)O)c(c(OC)c13)CN(C)Cc1c(S(=O)(=O)O)cc3cc(S(=O)(=O)O)c(c(OC)c3c1OC)CN(C)Cc1c(S(=O)(=O)O)cc3cc(S(=O)(=O)O)c(c(OC)c3c1OC)CN(C)Cc1c(S(=O)(=O)O)cc3cc(S(=O)(=O)O)c(c(OC)c3c1OC)CN(C)C2 [KY-395],–,low activity,–,–,–,–
"O=C(O)P(=O)(O)O [PFA, phosphonoformate]",–,–,–,–,–,IC90 [9]: 150 µM; IC90 [10]: 180 µM; IC90 [11]: > 1000 µM; IC90 [12]: 3000 µM
"Nc1ncnc2c1ncn2CCOCP(=O)(O)O [PMEA, phosphomethoxyethyladenine]",–,–,–,–,–,IC90 [9]: 155 µM; IC90 [10]: 100 µM; IC90 [11]: > 1000 µM; IC90 [13]: 120 µM; IC90 [12]: > 2000 µM
